In ChEMBL document CHEMBL4184286, “Discovery of morpholine-based aryl sulfonamides as Nav1.7 inhibitors” (Bioorg Med Chem Lett, 2018):

How the values were obtained:
[1] = target: T1, Sodium channel protein type 9 subunit alpha (Homo sapiens, UniProt Q15858); assay: Antagonist activity at recombinant human Nav1.7 expressed in HEK293 cells assessed as reduction in channel current at -60 mV holding potential after 600 secs by barracuda automated electrophysiology method; type: cell-based
Target sequence in this assay (Q15858 whole entry): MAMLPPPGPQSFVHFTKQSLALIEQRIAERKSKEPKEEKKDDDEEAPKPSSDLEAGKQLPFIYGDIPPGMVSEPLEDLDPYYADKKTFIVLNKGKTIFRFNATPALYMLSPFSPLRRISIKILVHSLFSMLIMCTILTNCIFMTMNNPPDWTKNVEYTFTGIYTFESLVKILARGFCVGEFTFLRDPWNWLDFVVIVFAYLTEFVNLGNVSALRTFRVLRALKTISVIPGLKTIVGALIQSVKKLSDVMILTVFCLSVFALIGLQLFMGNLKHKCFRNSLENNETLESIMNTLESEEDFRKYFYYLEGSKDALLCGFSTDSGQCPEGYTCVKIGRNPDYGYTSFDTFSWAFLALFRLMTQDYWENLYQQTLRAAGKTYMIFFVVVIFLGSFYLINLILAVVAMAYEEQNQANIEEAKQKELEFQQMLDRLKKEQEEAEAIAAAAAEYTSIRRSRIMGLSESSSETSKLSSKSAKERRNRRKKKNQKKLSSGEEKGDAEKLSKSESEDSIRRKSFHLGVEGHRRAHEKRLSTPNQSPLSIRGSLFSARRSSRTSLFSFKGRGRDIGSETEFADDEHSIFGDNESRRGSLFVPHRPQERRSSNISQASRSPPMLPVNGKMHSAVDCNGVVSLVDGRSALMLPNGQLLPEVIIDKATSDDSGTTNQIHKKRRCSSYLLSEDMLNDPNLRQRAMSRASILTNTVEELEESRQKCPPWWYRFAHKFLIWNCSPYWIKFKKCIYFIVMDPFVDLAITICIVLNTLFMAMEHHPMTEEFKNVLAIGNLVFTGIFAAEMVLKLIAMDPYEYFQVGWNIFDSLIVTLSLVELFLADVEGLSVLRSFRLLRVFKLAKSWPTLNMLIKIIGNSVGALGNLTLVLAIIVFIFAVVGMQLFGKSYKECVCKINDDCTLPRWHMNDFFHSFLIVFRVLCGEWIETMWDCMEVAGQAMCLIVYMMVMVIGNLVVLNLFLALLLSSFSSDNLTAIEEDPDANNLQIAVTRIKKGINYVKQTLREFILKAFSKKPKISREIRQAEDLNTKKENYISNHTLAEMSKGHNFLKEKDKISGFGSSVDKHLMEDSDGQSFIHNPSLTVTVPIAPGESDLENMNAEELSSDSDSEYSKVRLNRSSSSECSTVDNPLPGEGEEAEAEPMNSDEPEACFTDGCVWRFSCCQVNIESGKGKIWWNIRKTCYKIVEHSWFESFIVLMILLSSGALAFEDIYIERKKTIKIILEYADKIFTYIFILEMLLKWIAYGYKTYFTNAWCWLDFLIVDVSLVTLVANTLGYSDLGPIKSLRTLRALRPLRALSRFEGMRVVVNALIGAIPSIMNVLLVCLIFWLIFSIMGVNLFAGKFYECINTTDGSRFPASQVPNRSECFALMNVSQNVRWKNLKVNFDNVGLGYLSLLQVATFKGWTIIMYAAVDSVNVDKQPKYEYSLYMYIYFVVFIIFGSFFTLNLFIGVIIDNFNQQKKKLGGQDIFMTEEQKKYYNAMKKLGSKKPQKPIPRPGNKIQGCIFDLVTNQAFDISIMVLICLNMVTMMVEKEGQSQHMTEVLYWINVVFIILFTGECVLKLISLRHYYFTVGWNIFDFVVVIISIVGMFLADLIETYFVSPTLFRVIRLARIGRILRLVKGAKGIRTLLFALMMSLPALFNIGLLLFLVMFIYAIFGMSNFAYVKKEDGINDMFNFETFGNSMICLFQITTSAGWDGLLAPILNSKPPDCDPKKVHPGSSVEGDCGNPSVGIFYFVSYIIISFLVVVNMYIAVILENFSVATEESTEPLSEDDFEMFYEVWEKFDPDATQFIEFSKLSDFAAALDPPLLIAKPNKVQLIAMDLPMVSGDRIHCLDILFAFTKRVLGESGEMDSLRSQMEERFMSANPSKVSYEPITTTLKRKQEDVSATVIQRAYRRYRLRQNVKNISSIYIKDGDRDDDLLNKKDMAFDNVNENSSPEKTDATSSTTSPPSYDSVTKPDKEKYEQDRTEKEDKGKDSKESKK

[2] = target: T1, Sodium channel protein type 9 subunit alpha; assay: Antagonist activity at recombinant human Nav1.7 expressed in HEK293 cells assessed as reduction in peak inward current at 1 uM at -120 mV holding potential by patch clamp electrophysiology; type: cell-based
Target sequence in this assay (Q15858 whole entry, looked up): as the sequence (Q15858 whole entry) above

[3] = target: T1, Sodium channel protein type 9 subunit alpha; assay: Antagonist activity at recombinant human Nav1.7 expressed in HEK293 cells assessed as reduction in peak inward current at 100 nM at -120 mV holding potential by patch clamp electrophysiology; type: cell-based
Target sequence in this assay (Q15858 whole entry, looked up): as the sequence (Q15858 whole entry) above

[4] = target: Sodium channel protein type 8 subunit alpha (Homo sapiens, UniProt Q9UQD0); assay: Antagonist activity at recombinant human Nav1.6 assessed as reduction in channel current by barracuda automated electrophysiology method
[5] = target: T1, Sodium channel protein type 9 subunit alpha; assay: Antagonist activity at recombinant human Nav1.7 expressed in HEK293 cells assessed as reduction in peak inward current at -65 mV holding potential by patch clamp electrophysiology; type: cell-based
Target sequence in this assay (Q15858 whole entry): as above

[6] = target: Sodium channel protein type 5 subunit alpha (Homo sapiens, UniProt Q14524); assay: Antagonist activity at recombinant human Nav1.5 expressed in HEK293 cells assessed as reduction in channel current at -50 mV holding potential after 600 secs by barracuda automated electrophysiology method; type: ADME, cell-based
Chain of Sodium channel protein type 5 subunit alpha (Q14524 whole entry): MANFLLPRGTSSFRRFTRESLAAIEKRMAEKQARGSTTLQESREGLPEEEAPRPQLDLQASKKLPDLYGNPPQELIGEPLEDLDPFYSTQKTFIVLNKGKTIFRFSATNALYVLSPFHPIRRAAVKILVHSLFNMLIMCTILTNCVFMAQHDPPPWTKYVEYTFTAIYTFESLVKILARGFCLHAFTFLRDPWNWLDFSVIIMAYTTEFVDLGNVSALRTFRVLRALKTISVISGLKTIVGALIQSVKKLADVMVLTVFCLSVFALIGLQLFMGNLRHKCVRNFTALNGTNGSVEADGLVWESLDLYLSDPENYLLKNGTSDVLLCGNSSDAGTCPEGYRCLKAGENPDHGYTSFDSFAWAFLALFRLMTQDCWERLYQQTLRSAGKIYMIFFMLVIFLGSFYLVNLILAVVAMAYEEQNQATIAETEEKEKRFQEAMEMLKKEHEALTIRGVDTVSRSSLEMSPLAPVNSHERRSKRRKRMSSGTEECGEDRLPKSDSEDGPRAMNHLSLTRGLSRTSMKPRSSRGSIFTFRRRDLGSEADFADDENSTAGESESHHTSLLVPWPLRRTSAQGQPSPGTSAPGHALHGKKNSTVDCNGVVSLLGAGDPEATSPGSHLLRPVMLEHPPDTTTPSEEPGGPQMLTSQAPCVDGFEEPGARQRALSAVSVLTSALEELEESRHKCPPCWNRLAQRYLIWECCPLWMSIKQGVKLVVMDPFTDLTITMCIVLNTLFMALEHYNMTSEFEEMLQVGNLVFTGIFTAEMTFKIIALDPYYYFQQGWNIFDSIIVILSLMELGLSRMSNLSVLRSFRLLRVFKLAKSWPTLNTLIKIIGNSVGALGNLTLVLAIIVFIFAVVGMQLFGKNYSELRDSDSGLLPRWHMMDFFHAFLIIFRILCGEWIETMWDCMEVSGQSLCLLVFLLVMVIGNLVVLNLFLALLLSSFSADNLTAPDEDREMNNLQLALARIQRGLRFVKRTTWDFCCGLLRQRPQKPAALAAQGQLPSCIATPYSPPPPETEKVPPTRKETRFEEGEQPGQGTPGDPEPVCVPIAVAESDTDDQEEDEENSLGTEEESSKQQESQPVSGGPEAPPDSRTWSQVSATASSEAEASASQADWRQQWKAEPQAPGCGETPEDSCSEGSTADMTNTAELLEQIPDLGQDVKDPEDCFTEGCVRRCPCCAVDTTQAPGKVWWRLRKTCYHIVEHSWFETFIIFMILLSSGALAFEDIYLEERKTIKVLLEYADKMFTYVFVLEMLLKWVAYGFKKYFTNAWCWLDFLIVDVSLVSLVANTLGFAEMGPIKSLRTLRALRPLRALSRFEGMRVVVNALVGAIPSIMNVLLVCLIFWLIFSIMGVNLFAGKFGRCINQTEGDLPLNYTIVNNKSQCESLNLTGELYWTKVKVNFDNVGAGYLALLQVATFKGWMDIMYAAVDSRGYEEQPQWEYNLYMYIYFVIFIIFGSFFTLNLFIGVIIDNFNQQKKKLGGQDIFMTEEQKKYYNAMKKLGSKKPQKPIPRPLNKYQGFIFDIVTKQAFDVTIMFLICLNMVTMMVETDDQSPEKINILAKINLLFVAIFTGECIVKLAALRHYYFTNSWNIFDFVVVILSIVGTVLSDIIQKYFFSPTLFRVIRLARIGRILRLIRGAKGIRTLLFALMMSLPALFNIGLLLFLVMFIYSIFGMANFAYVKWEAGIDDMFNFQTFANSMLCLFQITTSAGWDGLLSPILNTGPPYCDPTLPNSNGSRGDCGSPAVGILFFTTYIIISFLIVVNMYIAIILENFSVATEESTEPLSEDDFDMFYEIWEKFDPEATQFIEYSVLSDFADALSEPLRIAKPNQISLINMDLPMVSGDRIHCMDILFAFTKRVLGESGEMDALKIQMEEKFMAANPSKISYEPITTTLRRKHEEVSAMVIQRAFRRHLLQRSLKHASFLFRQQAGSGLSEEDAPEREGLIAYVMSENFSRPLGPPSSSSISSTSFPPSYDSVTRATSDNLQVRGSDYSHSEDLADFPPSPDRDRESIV

[7] = target: Sodium channel protein type 2 subunit alpha (Homo sapiens, UniProt Q99250); assay: Antagonist activity at recombinant human Nav1.2 assessed as reduction in channel current by barracuda automated electrophysiology method

- IC50 [1]: 41 nM
- inhibition [2]: 48%
- inhibition [3]: 8%
- IC50 [4]: 1600 nM
- IC50 [5]: 11 nM
- IC50 [7]: 1500 nM
Structure (SMILES): CC1(C)CN[C@H](c2cc(Cl)cc(Cl)c2)[C@@H](Oc2cc(F)c(S(=O)(=O)Nc3ncns3)cc2F)O1
- IC50 [6]: 6000 nM
